Experimental findings from PubChem BioAssay AID493156 (Johns Hopkins Ion Channel Center, 2011) are described below.

SMILES strings stand for the structures.

This test has as its target Voltage-gated inwardly rectifying potassium channel KCNH2 (Homo sapiens) (UniProt Q12809). Nature of the test: hERG potassium channel inhibitors, primary screen, automated electrophysiology, CHO cells, Ionworks Quattro (AID 493156). The settings on record: automated patch clamp current, stronger effect = lower value. For orientation: Block of hERG is tested as a sign of cardiac risk.

Chain of Voltage-gated inwardly rectifying potassium channel KCNH2 (Homo sapiens) (Q12809 whole entry, looked up): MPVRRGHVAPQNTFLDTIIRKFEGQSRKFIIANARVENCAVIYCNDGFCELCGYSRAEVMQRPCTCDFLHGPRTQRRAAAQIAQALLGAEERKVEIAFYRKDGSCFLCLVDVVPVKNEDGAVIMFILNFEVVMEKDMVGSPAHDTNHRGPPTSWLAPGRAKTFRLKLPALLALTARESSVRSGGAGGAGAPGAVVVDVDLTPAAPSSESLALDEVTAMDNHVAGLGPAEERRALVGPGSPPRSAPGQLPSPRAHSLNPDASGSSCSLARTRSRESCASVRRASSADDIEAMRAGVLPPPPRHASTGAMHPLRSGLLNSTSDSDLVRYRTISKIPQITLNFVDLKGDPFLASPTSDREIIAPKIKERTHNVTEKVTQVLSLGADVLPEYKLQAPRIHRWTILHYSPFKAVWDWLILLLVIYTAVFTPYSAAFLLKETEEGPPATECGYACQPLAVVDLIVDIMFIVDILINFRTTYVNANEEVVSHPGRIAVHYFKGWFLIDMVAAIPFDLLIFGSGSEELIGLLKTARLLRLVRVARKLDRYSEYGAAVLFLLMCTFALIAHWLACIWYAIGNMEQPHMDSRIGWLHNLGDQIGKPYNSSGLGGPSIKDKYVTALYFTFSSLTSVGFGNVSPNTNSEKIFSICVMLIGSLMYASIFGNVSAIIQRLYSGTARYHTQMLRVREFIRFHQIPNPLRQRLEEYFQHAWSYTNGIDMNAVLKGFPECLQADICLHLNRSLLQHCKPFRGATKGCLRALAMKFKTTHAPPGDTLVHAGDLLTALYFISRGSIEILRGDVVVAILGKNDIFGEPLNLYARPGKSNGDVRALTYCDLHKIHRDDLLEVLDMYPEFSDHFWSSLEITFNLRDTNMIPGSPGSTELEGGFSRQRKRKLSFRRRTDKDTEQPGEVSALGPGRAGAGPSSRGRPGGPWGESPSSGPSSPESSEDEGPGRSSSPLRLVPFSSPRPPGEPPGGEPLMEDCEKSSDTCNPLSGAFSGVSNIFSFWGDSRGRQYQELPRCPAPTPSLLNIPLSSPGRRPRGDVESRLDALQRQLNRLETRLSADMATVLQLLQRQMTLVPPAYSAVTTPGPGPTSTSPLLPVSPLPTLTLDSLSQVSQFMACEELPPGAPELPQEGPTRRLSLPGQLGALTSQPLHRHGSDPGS

For `Cc1occc1C(=O)N1CCN(c2ccc([N+](=O)[O-])cc2)CC1`, the current change, negative = inhibition is -100% (at 10 µM) and -55.3% (current change, at 1 µM).

Turning to `O=C(c1cccc(-c2ccco2)c1)N1CCCC(N2CCN(c3ccc(F)cc3)CC2)C1` (stereo not drawn), the current change, negative = inhibition was -100% (at 10 µM) and -45.2% (current change, at 1 µM).

For the compound `Cc1ccc(-n2ncc3c2CCCC3NC(=O)c2ccoc2)cc1C` (stereo not drawn), the current change, negative = inhibition reads like this: (at 10 µM) -100%; (current change, at 1 µM) -88.6%.

For `CCc1ccc(CN2CCC(Oc3ccc(C(=O)N4CCCC4)cc3)CC2)cc1`, the current change, negative = inhibition was -100% (at 10 µM) and -87.6% (current change, at 1 µM).

Take `CCn1cc(CN2CCC(C(=O)Nc3cccc(-c4cccc(Cl)c4)c3)CC2)c(C)n1`: the current change, negative = inhibition is, setting by setting: (at 10 µM) -100%; (current change, at 1 µM) -48.6%.

For `Cc1ccccc1CN1CCN(C(=O)c2cc(-c3ccncc3)nc3ccccc23)CC1`, the current change, negative = inhibition reads like this: (at 10 µM) -100%; (current change, at 1 µM) -25.6%.

As for `Cc1cc(C)n(CCCN2CCC(C(=O)Nc3cccc(-c4cccc(F)c4)c3)CC2)n1`, the current change, negative = inhibition runs as follows: (at 10 µM) -100%; (current change, at 1 µM) -69.7%.

`CSc1cccc(CN2CCCC(CNC(=O)c3ccco3)C2)c1` (stereo not drawn): the current change, negative = inhibition is, setting by setting: (at 10 µM) -100%; (current change, at 1 µM) -57.7%.

Turning to `Cc1ccccc1C(=O)Nc1ccnn1C1CCN(Cc2cccnc2)CC1`, the current change, negative = inhibition is -100% (at 10 µM) and -58.5% (current change, at 1 µM).
